Data set [1] in a line: Storage stability of Example 1 tablets, contamination profile (HPLC peak area). Particulars: for result with further compounds having a stabilizing action (in words): used instead of triethyl citrate and simethicone, analogously to the preceding examples.
Data set [2] in a line: Storage stability of tablets of Examples 2 to 5, amended HPLC method. The data set is classed as physicochemical. The following applies: tablets of Examples 2 to 5, 50° C., 2 weeks. An excerpt:
Example 1 was repeated, but with the compounds and concentrations stated in Table 2. Triethyl citrate was applied to a mixture of the active compound, lactose and maize starch, the mixture was granulated with an aqueous solution of hydroxypropylcellulose, the granules were worked up with the additives listed in Table 2 to give the finished end mixture and this mixture was pressed to tablets with a rotary tablet press (Fette P1). Tablets with two different pressing pressures, or two different hardnesses (50 N and 80 N) were prepared and were stored in open brown glass containers at 50° C. for at least two weeks. At the same time, the end mixture which had not been subjected to pressure was stored at 4° C. in closed brown glass containers for the same period of time as a reference sample for comparison.
The tablets from Examples […], 3, 4 and 5 were investigated with an amended HPLC method, which led to other retention times. In this, the peaks correspond to the following compounds:
Peak at 1.7-1.8 min=desethyl-candesartan cilexetil Peak at 3.8-3.9 min=candesartan cilexetil Peak at 9.1-9.2 min=N-ethyl-candesartan cilexetil

This is an account of results in patent US20090208583A1, “TABLETS COMPRISING CANDESARTAN CILEXETIL” (Siegfried Generics International AG, priority 2006, published 2009).

Where a name gives a salt, the structure may show the parent alone.

For `CCCCOC(=O)CCCCCCCCC(=O)OCCCC` [dibutyl sebacate], the “result with further compounds having a stabilizing action (in words)” value in data set [1] is “Analogous results”.
The same measure, in the same setting: as for `CCOC(=O)c1ccccc1C(=O)OCC` [diethyl phthalate], the entry is “Analogous results”; as for `COC(=O)c1ccccc1C(=O)OC` [dimethyl phthalate], “Analogous results”.
Same read-out and setting: with `CCCCOC(=O)CC(O)(CC(=O)OCCCC)C(=O)OCCCC` [tributyl citrate] the entry was “Analogous results”.
Turning to `CCOC(=O)CC(O)(CC(=O)OCC)C(=O)OCC` [triethyl citrate], the “stabilizing action (in words)” value in data set [2] is recorded as “stabilizing action”. For the same compound, the “stabilizing action for candesartan cilexetil tablets during storage (in words)” value in data set [1] (Example 1 tablets, 50° C., two weeks) is on record as “stabilizing action”.
Consider `COC(=O)CC(O)(CC(=O)OC)C(=O)OC` [trimethyl citrate], for which the “result with further compounds having a stabilizing action (in words)” value in data set [1] is “Analogous results”.
